# Experimental data published in the SangsterLogP compilation.
# Assay: method code SF-HPLC, from DOI: 10.1080/01483919108049310
# Conditions: pH 8.5
row,Structure (SMILES),logD
1,Cc1nn(-c2ccccc2)c(Nc2ccc([N+](=O)[O-])cc2)c1[N+](=O)[O-],2.78
2,Cc1nn(-c2ccccc2)c(NN=Cc2ccc3c(c2[N+](=O)[O-])OCO3)c1[N+](=O)[O-],3.39
3,Cc1nn(-c2ccccc2)c(Nc2ccc(C(F)(F)F)cc2)c1[N+](=O)[O-],3.89
4,Cc1nn(-c2ccccc2)c(Nc2ccccc2)c1[N+](=O)[O-],2.98

# Other lines, results leading:
row,logD,Structure (SMILES)
1,3.74,Cc1nn(-c2ccccc2)c(Nc2ccc(Cl)cn2)c1[N+](=O)[O-]
2,3.8,Cc1ccccc1Nc1c([N+](=O)[O-])c(C)nn1-c1ccccc1
3,3.25,Cc1cccc(Nc2c([N+](=O)[O-])c(C)nn2-c2ccccc2)c1
4,3.43,Cc1ccc(Nc2c([N+](=O)[O-])c(C)nn2-c2ccccc2)cc1
